Where two headings read alike, the source gives them in different places.
Assays:
Type in all cases: cell-based, human
OCI-AML3 cells = assay: Proliferation assay (spheroid confluence, 8 days), OCI-AML3; details: read-out: spheroid assay_OCI-AML3 IC50
Protocol: The anti-proliferative effect of menin/MLL protein/protein interaction inhibitor test compounds was assessed in human leukemia cell lines. The cell line MOLM14 harbors a MLL translocation and expresses the MLL fusion protein MLL-AF9, respectively, as well as the wildtype protein from the second allele. OCI-AML3 cells that carry the NPM1c gene mutation were also tested. […] KO-52 was used as a control cell line containing two MLL (KMT2A) wildtype alleles in order to exclude compounds that display general cytotoxic effects.
MOLM14 cells were cultured in RPMI-1640 (Sigma Aldrich) supplemented with 10% heat-inactivated fetal bovine serum (HyClone), 2 mM L-glutamine (Sigma Aldrich) and 50 μg/ml gentamycin (Gibco). KO-52 and OCI-AML3 cell lines were propagated in alpha-MEM (Sigma Aldrich) supplemented with 20% heat-inactivated fetal bovine serum (HyClone), 2 mM L-glutamine (Sigma Aldrich) and 50 μg/ml gentamycin (Gibco).
In order to assess the anti-proliferative effects, 200 MOLM14 cells, 200 OCI-AML3 cells or 300 KO-52 cells were seeded in 200 μl media per well in 96-well round bottom, ultra-low attachment plates (Costar, catalogue number 7007). Cell seeding numbers were chosen based on growth curves to ensure linear growth throughout the experiment. Test compounds were added at different concentrations and the DMSO content was normalized to 0.3%. Cells were incubated for 8 days at 37° C. and 5% CO2. Spheroid like growth was measured in real-time by live-cell imaging (IncuCyteZOOM, Essenbio, 4×objective) acquiring images at day 8. Confluence (%) as a measure of spheroid size was determined using an integrated analysis tool.
In order to determine the effect of the test compounds over time, the confluence in each well as a measure of spheroid size, was calculated. Confluence of the highest dose of a reference compound was used as baseline for the LC (Low control) and the confluence of DMSO treated cells was used as 0% cytotoxicity (High Control, HC).
Absolute IC50 values were calculated as percent change in confluence as follows:
LC=Low Control: cells treated with e.g. 1 μM of the cytotoxic agent staurosporin, or e.g. cells treated with a high concentration of an alternative reference compound
HC=High Control: Mean confluence (%) (DMSO treated cells)
% Effect=100−(100*(Sample−LC)/(HC−LC))
GraphPad Prism (version 7.00) was used to calculate the IC50. Dose-response equation was used for the plot of % Effect vs Log10 compound concentration with a variable slope and fixing the maximum to 100% and the minimum to 0%.

MOLM14 cells = assay: Proliferation assay (spheroid confluence, 8 days), MOLM14; details: read-out: spheroid assay_MOLM14 IC50
In short: (§1)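 Cells grown as spheroids in ultra-low attachment round-bottom wells (200 MOLM14 or OCI-AML3, 300 KO-52 per well) with compound dilutions at 0.3% DMSO, 8 days, 37° C. Confluence from live-cell imaging at day 8; % effect normalized to DMSO and high-dose reference/staurosporin, absolute IC50 from variable-slope fit.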

KO-52 cells = assay: Proliferation assay (spheroid confluence, 8 days), KO-52 control cell line; details: read-out: spheroid assay_KO-52 IC50
In short: as §1

[1] = Homo sapiens, OCI-AML-3, OCI-AML3

Compound	IC50 (OCI-AML3 cells; [1])	IC50 (MOLM14 cells; Homo sapiens, MOLM-14, MOLM14)	IC50 (OCI-AML3 cells; OCI-AML3)	IC50 (MOLM14 cells; MOLM14)	IC50 (KO-52 cells; Homo sapiens)	IC50 (KO-52 cells)
Cc1cncc2c1c(CC1CCN(CC3CCN(C(=O)[C@@H](C)O)CC3)C1)cn2-c1ccc(F)cc1C(=O)N(C)C(C)C (single isomer, unassigned) [Compound 85]	0.022 µM	0.012 µM			2.2 µM	
CC(=O)N1CCC(N2CC[C@H](Cc3cn(-c4ccc(F)cc4C(=O)N(C)C(C)C)c4cncc(C)c34)C2)CC1 (single isomer, unassigned) [Compound 81]	0.1 µM	0.058 µM			4 µM	
Cc1cncc2c1c(CC1CCN(CC3CCN(C(=O)[C@H](C)O)CC3)C1)cn2-c1ccc(F)cc1C(=O)N(C)C(C)C (single isomer, unassigned) [Compound 86]	0.023 µM	0.01 µM			1.3 µM	
CC(=O)NC1CCC(N2CC[C@@H](Cc3cn(-c4ccc(F)cc4C(=O)N(C)C(C)C)c4cncc(C)c34)C2)CC1 (some centres unmarked) [Compound 201]	0.035 µM			0.031 µM		
Cc1cncc2c1c(C[C@@H]1CCN(CC3CCN(C(=O)C(C)C)CC3)C1)cn2-c1ccc(F)cc1C(=O)N1CCC[C@H]1CO [Compound 328]	0.052 µM	0.05 µM				
Cc1cncc2c1c(CC1CCN(CC3CCN(C(=O)C(C)(C)O)CC3)C1)cn2-c1ccc(F)cc1C(=O)N(C)C(C)C (single isomer, unassigned) [Compound 125]	0.012 µM	0.011 µM			7 µM	
CC(=O)N1CCC(C)(CN2CC(Cc3cn(-c4ccc(F)cc4C(=O)N(C)C(C)C)c4cncc(C)c34)C2)CC1 [Compound 84]	0.12 µM	0.063 µM			4.3 µM	
Cc1cncc2c1c(C[C@@H]1CCN(CC3CCN(C(N)=O)CC3)C1)cn2-c1ccc(F)cc1C(=O)N(C)C(C)C [Compound 207]		0.016 µM			14.3 µM	
Cc1cncc2c1c(C[C@@H]1CCN(CC3CCNC(=O)CC3)C1)cn2-c1ccc(F)cc1C(=O)N(C)C(C)C (mixture of isomers) [Compound 169]		0.016 µM			10 µM	
CC(=O)N1CCC(CCN2CC[C@@H](Cc3cn(-c4ccc(F)cc4C(=O)N(C)C(C)C)c4cncc(C)c34)C2)CC1 [Compound 189]		0.255 µM			14.4 µM	
CNC(=O)[C@H]1CC[C@@H](CN2CC[C@@H](Cc3cn(-c4ccc(F)cc4C(=O)N(C)C(C)C)c4cncc(C)c34)C2)CC1 [Compound 185]		0.023 µM			11 µM	
Cc1cncc2c1c(CC1CN(CC3CCOCC3)C1)cn2-c1ccc(F)cc1C(=O)N1CC2CC1CO2 (centres unmarked) [Compound 264]		0.02 µM			13.5 µM	
CCC([C@H]1C[C@@H](N2CCN(C(C)=O)CC2)C1)N1CC[C@@H](Cc2cn(-c3ccc(F)cc3C(=O)N(C)C(C)C)c3cncc(C)c23)C1 (mixture of isomers) [Compound 24]		0.013 µM			8.5 µM	
Cc1cncc2c1c(C[C@@H]1CCN(C[C@H]3CC[C@@H](C(=O)N4CCC4)CC3)C1)cn2-c1ccc(F)cc1C(=O)N(C)C(C)C [Compound 178]		0.012 µM			2.9 µM	
COCCN(C)CCC[C@H](C(C)C)N1CC[C@H](Cc2cn(-c3ccc(F)cc3C(=O)N(C)C(C)C)c3cncc(Cl)c23)C1 (single isomer, unassigned) [Compound 4a]		0.132 µM			7.8 µM	
CC(=O)N1CCN(CCCC(C(C)C)N2CC[C@@H](Cc3cn(-c4ccc(F)cc4C(=O)N(C)C(C)C)c4cncc(C)c34)C2)CC1 (mixture of isomers) [Compound 8]		0.011 µM			2.4 µM	
Cc1cncc2c1c(CC1CCN(CC3CCN(C(=O)N4CCOCC4)CC3)CC1)cn2-c1ccc(F)cc1C(=O)N(C)C(C)C [Compound 204]		0.016 µM			1.6 µM	
COCC(=O)N1CCC(CN2CC[C@@H](Cc3cn(-c4ccc(F)cc4C(=O)N(C)C(C)C)c4cncc(C)c34)C2)CC1 (single isomer, unassigned) [Compound 136]	0.054 µM	0.028 µM			1.4 µM	
COCCN(C)CCCC(C(C)C)N1CCC(Cc2cn(-c3ccc(F)cc3C(=O)N(C)C(C)C)c3cncc(F)c23)C1 (centres unmarked) [Compound 6]		0.034 µM			1.5 µM	
CC(=O)N1CC2CC(C1)C2N1CC[C@H](Cc2cn(-c3ccc(F)cc3C(=O)N(C)C(C)C)c3cncc(C)c23)C1 (some centres unmarked) [Compound 208]		0.224 µM			> 15 µM	
COCCN(C)CCCC(C(C)C)N1CC[C@H](Cc2cn(-c3ccc(F)cc3C(=O)N(C)C(C)C)c3cncc(C)c23)C1 (single isomer, unassigned) [Compound 2]		0.001 µM			> 15 µM	

Second part, led by results:

IC50 (OCI-AML3 cells; [1])	IC50 (MOLM14 cells; Homo sapiens, MOLM-14, MOLM14)	IC50 (OCI-AML3 cells; OCI-AML3)	IC50 (MOLM14 cells; MOLM14)	Compound	IC50 (KO-52 cells; Homo sapiens)	IC50 (KO-52 cells)
	0.006 µM	0.011 µM		Cc1cncc2c1c(C[C@@H]1CCN(CC3CCNC(=O)CC3)C1)cn2-c1ccc(F)cc1C(=O)N1CCC[C@H]1C (single isomer, unassigned) [Compound 353a]	> 15 µM	
0.156 µM				Cc1cncc2c1c(C[C@@H]1CCN([C@H](CO)C3CCCOC3)C1)cn2-c1ccc(F)cc1C(=O)N(C)C(C)C (single isomer, unassigned) [Compound 198b]	> 15 µM	
0.128 µM			0.081 µM	CN=S(=O)(c1cc(F)ccc1-n1cc(CC2CCN(CC3CCOCC3)C2)c2c(C)cncc21)C(C)C (single isomer, unassigned) [Compound 77b]		1.9 µM
		0.138 µM	0.052 µM	Cc1cncc2c1c(CC1CCN(CC3CCC(=O)N(C)CC3)C1)cn2-c1ccc(F)cc1C(=O)N(C)C(C)C (single isomer, unassigned) [Compound 184b]		> 15 µM
0.009 µM	0.008 µM			CC(=O)N1CCC(C(C)N2CCC(Cc3cn(-c4ccc(F)cc4C(=O)N(C)C(C)C)c4cncc(C)c34)C2)CC1 (single isomer, unassigned) [Compound 116a]	3.8 µM	
0.015 µM	0.01 µM			Cc1cncc2c1c(C[C@@H]1CCN([C@@H](CO)C3CCCOC3)C1)cn2-c1ccc(F)cc1C(=O)N(C)C(C)C (single isomer, unassigned) [Compound 198a]		
0.012 µM	0.01 µM			CNC(=O)[C@H]1CC[C@H](CN2CC([C@H](C)c3cn(-c4ccc(F)cc4C(=O)N(C)C(C)C)c4cncc(C)c34)C2)CC1 (single isomer, unassigned) [Compound 164b]	10.4 µM	
0.263 µM	0.14 µM			Cc1cncc2c1c(C[C@@H]1CCN(C[C@@H]3CCNC(=O)CC3)C1)cn2-c1ccc(F)cc1C(=O)N1[C@H](C)CC[C@H]1C (single isomer, unassigned) [Compound 352b]	> 15 µM	
			0.197 µM	CN=S(=O)(c1cc(F)ccc1-n1cc(CC2CCN(CC3CCOCC3)C2)c2c(C)cncc21)C(C)C (single isomer, unassigned) [Compound 77d]		> 15 µM
	0.044 µM			Cc1cncc2c1c(C[C@H]1CCN([C@H](C)C3CCOCC3)C1)cn2-c1ccc(F)cc1[S@](=N)(=O)C(C)C (single isomer, unassigned) [Compound 181a]	4.1 µM	
	0.033 µM			Cc1cncc2c1c(CC1CN(C[C@@H]3CCOC3)C1)cn2-c1ccc(F)cc1C(=O)N(C)C(C)C (single isomer, unassigned) [Compound 191b]	7 µM	
		0.026 µM	0.013 µM	Cc1cncc2c1c(CC1CCN(CC3CCC(=O)N(C)CC3)C1)cn2-c1ccc(F)cc1C(=O)N(C)C(C)C (single isomer, unassigned) [Compound 184a]	> 15 µM	
	0.004 µM			COC[C@H](C1CCCCO1)N1CC[C@@H](Cc2cn(-c3ccc(F)cc3C(=O)N(C)C(C)C)c3cncc(C)c23)C1 (single isomer, unassigned) [Compound 165b]	1.9 µM	
	0.676 µM			CN=[S@](=O)(c1cc(F)ccc1-n1cc(C[C@@H]2CCN(CC3CCN(C(C)=O)CC3)C2)c2c(C)cncc21)C(C)C (single isomer, unassigned) [Compound 128a]	7.7 µM	

Reference: patent US20230250096A1, “SUBSTITUTED PHENYL-1H-PYRROLO[2,3-c] PYRIDINE DERIVATIVES” (Janssen Pharmaceutica NV, priority 2021, published 2023)
